Reference: patent publication US11299480B2, “2-arylsulfonamido-N-arylacetamide derivatized STAT3 inhibitors” (University of Hawaii, priority 2017, dated 2022)

Legend:
Type in all cases: cell-based, human
Conditions in all cases: MDA-MB-231, 5 μM, 24 h treatment
pJak2 = assay: Stat3-independent signaling, immunoblot of pJak2, MDA-MB-231 cells
Source text: (§1) FIG. 4. Effects of select compounds of the present invention on Stat3-independent signal transduction events. […] Positions of proteins in gel are labeled; control lane (Con) represents whole-cell lysate prepared from 0.05% DMSO-treated cells.
(§2) All antibodies tested were purchased from Cell Signaling Technology.
(§3) Altogether, the new analogs show strong, albeit variable degrees of inhibition of constitutive Stat3 DNA-binding activity and Tyr phosphorylation in human tumor cells.

pSrc = assay: Stat3-independent signaling, immunoblot of pSrc, MDA-MB-231 cells
Source text: as §1, §2, §3

pERK1/2 = assay: Stat3-independent signaling, immunoblot of pERK1/2, MDA-MB-231 cells
Source text: as §1, §2, §3

Cc1cc(C(=O)O)ccc1N(Cc1ccc(C2CCCCC2)cc1)C(=O)[C@@H](C)N(C)S(=O)(=O)c1c(F)c(F)c(F)c(F)c1F [Example 42, (R)-4-(N-(4-cyclohexylbenzyl)-2-((2,3,4,5,6-pentafluoro-N-methylphenyl)sulfonamido)propanamido)-3-methylbenzoic acid]
little effect: effect on pJak2 (pJak2) | effect on pSrc (pSrc) | effect on pERK1/2 (pERK1/2)
